For experiment [1], the system named is pain threshold. Briefly: Analgesic action (pressure stimulation of tail base, rise ratio of pain threshold). The experiment is classed as in vivo, Wistar strain male rats. The method, then: Test medication A consisted of a suspension of Acasia used as the control. The other test medications contained the ingredients listed in the Table below, and were suspended in Acasia solution. These test medications were administered orally at a volume of 1 ml/100 g B.W. A pressure stimulation device (Analgesy-meter Model TK-201, Unicom) was used to apply pressure to the base of the tails of the animals. A pain threshold of […] was selected for the experimented animal based on parameters of reaction to temporary pain consisting of writhing, fleeing and squealing. The pain threshold was measured prior to oral administration of each test medication as well as at 30 and 120 minutes after administration. The ratio of the rise in the pain threshold at 30 and 120 minutes after administration was calculated from comparison with that before administration.

In experiment [2] the test system is writhing syndrome. In words: Analgesic action (acetic acid writhing syndrome). In kind it is in vivo, ddY strain male mice. As to conditions: oral, mouse; in terms of the amount of analgesic antipyretic ingredient.
The test system of experiment [3] is body temperature (pyrogenic area, yeast). In words: Antipyretic action (yeast-induced fever). The experiment is classed as in vivo, Wistar strain male rats. The following applies: oral, rat, up to 6 h; in terms of the amount of the antipyretic analgesic ingredient.

As to `CC(C)Cc1ccc(C(C)C(=O)O)cc1` (stereo not shown) [Ibuprofen, 2-(4-isobutylphenyl)propionic acid], in experiment [1] (30 minutes after administration), the “Pain threshold at 30 minutes (in words)” value was “a remarkable rise was observed”. The “Pain threshold at 120 minutes (in words)” value in experiment [1] (120 minutes after administration) is “essentially equal to that before administration”. Further, the ED50 worked out at 137 mg/kg in experiment [2] and 20.4 mg/kg in experiment [3].

The values above are taken from patent US5409709A (priority 1991, dated 1995).
